Assay results reported in publication PMC7926923, “Identification of Active Site Residues of the Siderophore Synthesis Enzyme PvdF and Evidence for Interaction of PvdF with a Substrate-Providing Enzyme” (International Journal of Molecular Sciences, 2021).

Legend:
[1] = target: T1, PvdF (Pseudomonas aeruginosa, UniProt Q9I184); assay: differential scanning fluorimetry, SYPRO Orange; assay type: binding; details: 10 uM protein, 1.5 mM fTHF, 10 mM HEPES pH 8.0; site not determined; also co-substrate in the activity assay
T1 construct: recombinant from E. coli BL21(DE3), His6 tag kept at N-terminus (His6PvdF, pET-DUET1; also all variants) or C-terminus (PvdFHis6, pET21a); IMAC and SEC; monomer
T1 sequence (Q9I184 entry or part of it): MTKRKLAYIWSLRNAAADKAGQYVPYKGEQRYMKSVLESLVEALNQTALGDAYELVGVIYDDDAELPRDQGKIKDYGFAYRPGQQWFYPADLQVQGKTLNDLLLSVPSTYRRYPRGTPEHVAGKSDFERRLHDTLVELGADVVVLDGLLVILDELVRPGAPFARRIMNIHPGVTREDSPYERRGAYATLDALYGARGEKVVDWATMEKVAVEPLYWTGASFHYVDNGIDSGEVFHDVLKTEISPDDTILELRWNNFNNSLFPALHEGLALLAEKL

[2] = target: T1, PvdF; assay: direct injection mass spectrometry of fOHOrn product; assay type: biochemical; details: 25 uM PvdF, 1 mM OHOrn, 1.5 mM fTHF, 10 mM HEPES pH 8.0, 30 C, 3 h

Row | Structure (SMILES) | thermal shift [1] | direct injection mass spectrometry of fOHOrn product [2]
1 | Nc1nc2c(c(=O)[nH]1)N[C@@H](CN(C=O)c1ccc(C(=O)N[C@@H](CCC(=O)O)C(=O)O)cc1)CN2 [N^10-formyltetrahydrofolate] | addition of fTHF resulted in a significant change in fluorescence of wild-type PvdF | 
2 | N[C@@H](CCCNO)C(=O)O [L-OHOrn] |  | able to convert OHOrn to fOHOrn with fTHF as the co-substrate
